Test results reported in patent US10745401B2, “Condensed lactam derivative” (Sumitomo Dainippon Pharma Co., Ltd., priority 2018, dated 2020).

How the values were obtained:
human 5-HT1A receptor [1] = molecular target: T1, human 5-HT1A receptor (Homo sapiens (Human), UniProt P08908); assay: Test 1: binding activity for human 5-HT1A receptor ([3H]8-OH-DPAT, CHO cell membrane fraction)
Procedure, shortened: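 Membranes incubated with [3H]8-OH-DPAT and compound for 60 min at room temperature, then filtered on polyethylenimine-coated glass-fibre plates and counted by liquid scintillation. IC50 from Hill analysis; Ki = IC50/(1+S/Kd), Kd from saturation binding on the same membranes.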

[2] = Test 4: metabolic stability test in human hepatic microsome; assay type: in vitro ADME; settings: 0.1 mg/mL microsome, 0.1 μmol/L compound, 37° C., 30 minutes
Procedure, shortened: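 LC-MS quantified remaining parent after 30 min, 37° C, in pH 7.4 25 mmol/L phosphate containing 0.1 mg/mL human hepatic microsomes, 3.2 mmol/L NADPH and 0.1 μmol/L test compound. Value given as −LN(residual ratio)/30/0.1, mL/min/mg protein.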

hERG channel = hERG channel (Homo sapiens (Human), UniProt Q12809); assay: Test 6-1: inhibitory activity for hERG channel (auto patch clamp, Qpatch); assay type: cell-based; settings: whole cell auto patch clamp, hERG-CHO cells; read-out: hERG inhibition IC50
Sequence of hERG channel (Q12809 whole entry): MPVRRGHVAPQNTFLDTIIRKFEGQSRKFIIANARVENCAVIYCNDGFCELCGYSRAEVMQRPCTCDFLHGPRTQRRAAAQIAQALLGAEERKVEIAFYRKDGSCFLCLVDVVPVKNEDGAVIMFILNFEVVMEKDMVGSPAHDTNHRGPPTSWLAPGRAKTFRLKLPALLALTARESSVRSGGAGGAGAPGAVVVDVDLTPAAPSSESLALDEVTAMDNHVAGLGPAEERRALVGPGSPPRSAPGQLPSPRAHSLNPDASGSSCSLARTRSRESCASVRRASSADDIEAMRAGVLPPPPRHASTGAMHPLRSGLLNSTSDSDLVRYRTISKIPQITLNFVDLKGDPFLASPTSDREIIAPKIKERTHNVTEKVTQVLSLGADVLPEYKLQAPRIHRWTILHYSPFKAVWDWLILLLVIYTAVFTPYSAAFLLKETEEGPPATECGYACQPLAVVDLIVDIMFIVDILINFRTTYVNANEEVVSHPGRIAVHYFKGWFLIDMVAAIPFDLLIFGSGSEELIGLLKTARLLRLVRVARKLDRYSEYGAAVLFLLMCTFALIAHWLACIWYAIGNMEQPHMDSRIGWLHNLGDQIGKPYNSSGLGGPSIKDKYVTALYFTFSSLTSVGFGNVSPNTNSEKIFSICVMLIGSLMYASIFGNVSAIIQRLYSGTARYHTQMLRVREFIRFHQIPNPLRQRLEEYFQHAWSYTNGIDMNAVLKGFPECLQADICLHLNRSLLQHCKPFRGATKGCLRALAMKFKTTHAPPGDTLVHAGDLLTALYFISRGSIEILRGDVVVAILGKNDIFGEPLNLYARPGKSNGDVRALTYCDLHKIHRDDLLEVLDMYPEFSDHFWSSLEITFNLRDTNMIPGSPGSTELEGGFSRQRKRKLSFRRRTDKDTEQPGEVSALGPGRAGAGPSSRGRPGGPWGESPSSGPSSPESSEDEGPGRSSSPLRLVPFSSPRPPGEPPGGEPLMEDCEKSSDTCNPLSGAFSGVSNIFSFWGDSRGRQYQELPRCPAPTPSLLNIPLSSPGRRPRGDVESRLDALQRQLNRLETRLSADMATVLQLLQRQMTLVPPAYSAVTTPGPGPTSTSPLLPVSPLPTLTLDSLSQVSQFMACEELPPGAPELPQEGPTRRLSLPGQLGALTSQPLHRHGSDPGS
Procedure, shortened: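 Whole-cell patch clamp on an automated system using CHO cells stably expressing human hERG (IKr); 15 s pulse interval. Four increasing compound concentrations applied cumulatively; mean peak tail current from last 3 stimulations per concentration used. IC50 from inhibition versus pre-compound current, fitted by Hill equation.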

human D2 receptor = human D2 receptor (Homo sapiens (Human), UniProt P14416); assay: Test 1: binding activity for human D2 receptor ([3H]Spiperone, CHO cell membrane fraction); settings: human D2 receptor, [3H]Spiperone
Sequence of human D2 receptor (P14416 whole entry): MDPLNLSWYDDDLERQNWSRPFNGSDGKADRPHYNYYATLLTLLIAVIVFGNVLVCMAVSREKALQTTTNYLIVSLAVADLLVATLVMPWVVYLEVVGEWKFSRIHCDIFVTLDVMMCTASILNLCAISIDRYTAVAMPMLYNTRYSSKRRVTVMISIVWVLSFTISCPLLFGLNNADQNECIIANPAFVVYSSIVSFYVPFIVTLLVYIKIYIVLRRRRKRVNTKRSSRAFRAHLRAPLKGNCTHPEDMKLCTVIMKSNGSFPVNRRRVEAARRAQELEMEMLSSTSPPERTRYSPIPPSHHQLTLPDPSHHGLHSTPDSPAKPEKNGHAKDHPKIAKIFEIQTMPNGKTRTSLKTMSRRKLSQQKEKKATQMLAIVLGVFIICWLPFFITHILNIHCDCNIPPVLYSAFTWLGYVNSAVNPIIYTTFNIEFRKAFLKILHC
Procedure, shortened: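 Compound displacement of [3H]ketanserin at 5-HT2A or [3H]spiperone at D2 was measured in CHO membrane fractions after 60 min at room temperature, with filtration and scintillation counting. IC50 was converted to Ki by Cheng–Prusoff using ligand concentration and Kd from saturation binding.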

human 5-HT1A receptor [3] = molecular target: T1, human 5-HT1A receptor; assay: Test 2: agonist activity for human 5-HT1A receptor ([35S]GTPγS binding); assay type: biochemical; settings: for EC50: [35S]GTPγS binding, concentration at which half the activity of Emax was obtained; for Emax at 10 µM: agonist activity in the presence of 10 μM of compound, relative to 100 μmol/L 5-HT
Procedure, shortened: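 [35S]GTPγS binding read-out: after 60 min at room temperature with test compound in GDP buffer, human 5-HT1A receptor CHO membranes were vacuum-filtered and retained radioactivity scintillation-counted. Agonist activity calculated by formula.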

T1 sequence (P08908 whole entry): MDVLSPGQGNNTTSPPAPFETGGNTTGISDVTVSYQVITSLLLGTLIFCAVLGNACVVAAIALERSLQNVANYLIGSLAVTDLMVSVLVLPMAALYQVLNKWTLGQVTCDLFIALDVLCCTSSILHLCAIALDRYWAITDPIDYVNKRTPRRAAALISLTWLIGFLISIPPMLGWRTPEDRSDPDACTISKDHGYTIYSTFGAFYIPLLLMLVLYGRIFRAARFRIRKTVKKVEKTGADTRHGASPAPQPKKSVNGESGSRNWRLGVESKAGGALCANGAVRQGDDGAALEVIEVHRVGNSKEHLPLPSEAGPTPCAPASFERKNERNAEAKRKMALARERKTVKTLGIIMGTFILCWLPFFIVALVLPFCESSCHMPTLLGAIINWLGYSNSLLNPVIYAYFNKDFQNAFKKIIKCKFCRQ

## CCn1ncc2c1CCN(CCN1CCN(c3nsc4ccccc34)CC1)C2=O [Example 64]
Human 5-HT1A receptor [1]
  Ki: 17.4 nM
[2]
  Metabolic stability in human hepatic microsome: 0.064 mL/min/mg protein
hERG channel
  IC50: 7700 nM
Human D2 receptor
  Ki: 430 nM
Human 5-HT1A receptor [3]
  EC50: 191 nM
  Emax at 10 µM: 69%

## Cn1cnc2c1C(=O)N(CCN1CCN(c3nsc4ccccc34)CC1)CCC2 [Example 55]
Human 5-HT1A receptor [1]
  Ki: 13.6 nM
[2]
  Metabolic stability in human hepatic microsome: 0.161 mL/min/mg protein
hERG channel
  IC50: > 10000 nM
Human D2 receptor
  Ki: 697 nM
Human 5-HT1A receptor [3]
  EC50: 4.3 nM
  Emax at 10 µM: 50%

## Cc1c2c(nn1C)CCN(CCN1CCN(c3nsc4ccccc34)CC1)C2=O [Example 65]
Human 5-HT1A receptor [1]
  Ki: 0.9 nM
[2]
  Metabolic stability in human hepatic microsome: 0.126 mL/min/mg protein
hERG channel
  IC50: 4400 nM
Human D2 receptor
  Ki: 222 nM
Human 5-HT1A receptor [3]
  EC50: 2.1 nM
  Emax at 10 µM: 72%

## Cn1cc2c(n1)C(=O)N(CCN1CCN(c3nsc4ccccc34)CC1)CC2 [Example 50]
Human 5-HT1A receptor [1]
  Ki: 1.25 nM
[2]
  Metabolic stability in human hepatic microsome: 0.038 mL/min/mg protein
hERG channel
  IC50: 8500 nM
Human D2 receptor
  Ki: 825 nM
Human 5-HT1A receptor [3]
  EC50: 5.14 nM
  Emax at 10 µM: 59%

## COc1ncc2c(n1)CCN(CCN1CCC(c3noc4ccccc34)CC1)C2=O [Example 176]
Human 5-HT1A receptor [1]
  Ki: 5.1 nM
[2]
  Metabolic stability in human hepatic microsome: <0.05 mL/min/mg protein
hERG channel
  IC50: 1000 nM
Human D2 receptor
  Ki: 248 nM
Human 5-HT1A receptor [3]
  EC50: 30.6 nM
  Emax at 10 µM: 40%

## Cc1cc2c(n1C)CCCN(CCN1CCC(c3noc4ccccc34)CC1)C2=O [Example 166]
Human 5-HT1A receptor [1]
  Ki: 0.17 nM
[2]
  Metabolic stability in human hepatic microsome: <0.05 mL/min/mg protein
hERG channel
  IC50: 1000 nM
Human D2 receptor
  Ki: 139 nM
Human 5-HT1A receptor [3]
  EC50: 6.22 nM
  Emax at 10 µM: 57%

## CC1CN(CCN2CCN(c3nsc4ccccc34)CC2)C(=O)c2ccn(C)c21 (centres unmarked) [Example 79]
Human 5-HT1A receptor [1]
  Ki: 0.19 nM
[2]
  Metabolic stability in human hepatic microsome: 0.409 mL/min/mg protein
hERG channel
  IC50: 4500 nM
Human D2 receptor
  Ki: 239 nM
Human 5-HT1A receptor [3]
  EC50: 6.21 nM
  Emax at 10 µM: 63%

## O=C1c2cn(-c3ccccc3)nc2CCN1CCN1CCN(c2nsc3ccccc23)CC1 [Example 168]
Human 5-HT1A receptor [1]
  Ki: 1.02 nM
[2]
  Metabolic stability in human hepatic microsome: 0.924 mL/min/mg protein
hERG channel
  IC50: < 300 nM
Human D2 receptor
  Ki: 145 nM
Human 5-HT1A receptor [3]
  EC50: 100 nM
  Emax at 10 µM: 52%

## Cc1ncc2c(n1)CCN(CCN1CCN(c3nsc4ccccc34)CC1)C2=O [Example 90]
Human 5-HT1A receptor [1]
  Ki: 6.77 nM
[2]
  Metabolic stability in human hepatic microsome: 0.070 mL/min/mg protein
hERG channel
  IC50: > 10000 nM
Human D2 receptor
  Ki: 1070 nM
Human 5-HT1A receptor [3]
  EC50: 57.7 nM
  Emax at 10 µM: 65%

## O=C1c2cnc(C3CC3)nc2CCN1CCN1CCN(c2nsc3ccccc23)CC1 [Example 94]
Human 5-HT1A receptor [1]
  Ki: 5.24 nM
[2]
  Metabolic stability in human hepatic microsome: 0.368 mL/min/mg protein
hERG channel
  IC50: 2300 nM
Human D2 receptor
  Ki: 236 nM
Human 5-HT1A receptor [3]
  EC50: 79.4 nM
  Emax at 10 µM: 53%

## Cc1nc(C)c2c(n1)CCN(CCN1CCC(c3noc4ccccc34)CC1)C2=O [Example 139]
Human 5-HT1A receptor [1]
  Ki: 20.3 nM
[2]
  Metabolic stability in human hepatic microsome: <0.05 mL/min/mg protein
hERG channel
  IC50: 3800 nM
Human D2 receptor
  Ki: 635 nM
Human 5-HT1A receptor [3]
  EC50: 72.7 nM
  Emax at 10 µM: 48%

## Cc1cc2c(cn1)C(=O)N(CCN1CCC(c3noc4ccccc34)CC1)CC2 [Example 135]
Human 5-HT1A receptor [1]
  Ki: 1.4 nM
[2]
  Metabolic stability in human hepatic microsome: <0.05 mL/min/mg protein
hERG channel
  IC50: 700 nM
Human D2 receptor
  Ki: 62 nM
Human 5-HT1A receptor [3]
  EC50: 6.14 nM
  Emax at 10 µM: 54%

## CCc1cc2c(cn1)C(=O)N(CCN1CCN(c3nsc4ccccc34)CC1)CC2 [Example 104, 2-{2-[4-(1,2-Benzoisothiazol-3-yl)piperazin-1-yl]ethyl}-6-ethyl-3,4-dihydro-2,7-naphthyridin-1(2H)-one]
Human 5-HT1A receptor [1]
  Ki: 0.41 nM
[2]
  Metabolic stability in human hepatic microsome: 0.358 mL/min/mg protein
hERG channel
  IC50: 700 nM
Human D2 receptor
  Ki: 93 nM
Human 5-HT1A receptor [3]
  EC50: 1.99 nM
  Emax at 10 µM: 64%

## Cc1nc2c(o1)CCN(CCN1CCN(c3nsc4ccccc34)CC1)C2=O [Example 51]
Human 5-HT1A receptor [1]
  Ki: 0.23 nM
[2]
  Metabolic stability in human hepatic microsome: 0.074 mL/min/mg protein
hERG channel
  IC50: 5100 nM
Human D2 receptor
  Ki: 993 nM
Human 5-HT1A receptor [3]
  EC50: 2.08 nM
  Emax at 10 µM: 61%

## Cc1ncc2c(n1)CCC(CCN1CCC(c3noc4ccccc34)CC1)C2=O (centres unmarked) [Example 150]
Human 5-HT1A receptor [1]
  Ki: 5.36 nM
[2]
  Metabolic stability in human hepatic microsome: <0.05 mL/min/mg protein
hERG channel
  IC50: 1200 nM
Human D2 receptor
  Ki: 188 nM
Human 5-HT1A receptor [3]
  EC50: 36.9 nM
  Emax at 10 µM: 54%

## O=C1c2sccc2CCN1CCN1CCC(c2noc3ccccc23)CC1 [Example 126]
Human 5-HT1A receptor [1]
  Ki: 15.9 nM
[2]
  Metabolic stability in human hepatic microsome: 0.135 mL/min/mg protein
hERG channel
  IC50: < 300 nM
Human D2 receptor
  Ki: 93 nM
Human 5-HT1A receptor [3]
  EC50: 67.2 nM
  Emax at 10 µM: 60%

## Cc1nc(C)c2c(=O)n(CCN3CCC(c4noc5ccccc45)CC3)ccc2n1 [Example 114, 6-{2-[4-(1,2-Benzoisoxazol-3-yl)piperidin-1-yl]ethyl}-2,4-dimethylpyrido[4,3-d]pyrimidin-5(6H)-one]
Human 5-HT1A receptor [1]
  Ki: 11.3 nM
[2]
  Metabolic stability in human hepatic microsome: 0.102 mL/min/mg protein
hERG channel
  IC50: 2700 nM
Human D2 receptor
  Ki: 309 nM
Human 5-HT1A receptor [3]
  EC50: 43.8 nM
  Emax at 10 µM: 64%

## O=C1c2cnc(Br)cc2CCN1CCN1CCN(c2nsc3ccccc23)CC1 [Example 62]
Human 5-HT1A receptor [1]
  Ki: 0.1 nM
[2]
  Metabolic stability in human hepatic microsome: 0.505 mL/min/mg protein
hERG channel
  IC50: 1500 nM
Human D2 receptor
  Ki: 222 nM
Human 5-HT1A receptor [3]
  EC50: 1.01 nM
  Emax at 10 µM: 62%

## Cc1nccc2c1C(=O)N(CCN1CCC(c3noc4ccccc34)CC1)CC2 [Example 87]
Human 5-HT1A receptor [1]
  Ki: 0.12 nM
[2]
  Metabolic stability in human hepatic microsome: 0.458 mL/min/mg protein
hERG channel
  IC50: 500 nM
Human D2 receptor
  Ki: 94 nM
Human 5-HT1A receptor [3]
  Emax at 10 µM: 76%

## Cn1ncc2c1CCCN(CCN1CCN(c3nsc4ccccc34)CC1)C2=O [Example 44]
Human 5-HT1A receptor [1]
  Ki: 0.22 nM
[2]
  Metabolic stability in human hepatic microsome: 0.04 mL/min/mg protein
hERG channel
  IC50: 7700 nM
Human D2 receptor
  Ki: 121 nM
Human 5-HT1A receptor [3]
  EC50: 1.8 nM
  Emax at 10 µM: 76%

## COc1cc2c(cn1)CCN(CCN1CCN(c3nsc4ccccc34)CC1)C2=O [Example 19]
Human 5-HT1A receptor [1]
  Ki: 0.75 nM
[2]
  Metabolic stability in human hepatic microsome: 0.378 mL/min/mg protein
hERG channel
  IC50: 5200 nM
Human D2 receptor
  Ki: 690 nM
Human 5-HT1A receptor [3]
  EC50: 6.7 nM
  Emax at 10 µM: 68%

## Cc1n[nH]c2c1C(=O)N(CCN1CCC(c3noc4ccccc34)CC1)CC2 [Example 99, 5-{2-[4-(1,2-Benzoisoxazol-3-yl)piperidin-1-yl]ethyl}-3-methyl-1,5,6,7-tetrahydro-4H-pyrazolo[4,3-c]pyridin-4-one]
Human 5-HT1A receptor [1]
  Ki: 21.5 nM
[2]
  Metabolic stability in human hepatic microsome: <0.01 mL/min/mg protein
hERG channel
  IC50: 2900 nM
Human D2 receptor
  Ki: 280 nM
Human 5-HT1A receptor [3]
  EC50: 185 nM
  Emax at 10 µM: 40%

## Cn1nc2c(c1C(F)(F)F)C(=O)N(CCN1CCN(c3nsc4ccccc34)CC1)CC2 [Example 78]
Human 5-HT1A receptor [1]
  Ki: 0.46 nM
[2]
  Metabolic stability in human hepatic microsome: 0.459 mL/min/mg protein
hERG channel
  IC50: 5500 nM
Human D2 receptor
  Ki: 343 nM
Human 5-HT1A receptor [3]
  EC50: 0.77 nM
  Emax at 10 µM: 66%
